Columns and labels:
Assay in all cases: competitive isoTOP-ABPP
Type in all cases: binding
[1] = biological target: T1, TRMT10C Mitochondrial ribonuclease P protein 1 (Homo sapiens, UniProt Q7L0Y3)
T1 construct: isoTOP-ABPP experiments performed in cell lysates (in vitro); endogenous in cells; host or cells: soluble proteome of human cancer cell lines (MDA-MB-231; Ramos and Jurkat also prepared)
T1 sequence (Q7L0Y3 40-403): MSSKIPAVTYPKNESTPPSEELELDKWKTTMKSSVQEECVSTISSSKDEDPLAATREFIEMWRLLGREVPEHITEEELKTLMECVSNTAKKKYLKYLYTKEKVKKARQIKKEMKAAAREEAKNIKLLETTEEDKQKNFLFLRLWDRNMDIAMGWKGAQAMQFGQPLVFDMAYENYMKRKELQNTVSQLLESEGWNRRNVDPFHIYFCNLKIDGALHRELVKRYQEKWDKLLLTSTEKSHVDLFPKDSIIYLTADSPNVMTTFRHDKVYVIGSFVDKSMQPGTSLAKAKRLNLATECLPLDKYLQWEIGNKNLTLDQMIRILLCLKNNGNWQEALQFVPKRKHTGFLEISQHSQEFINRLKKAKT
Summary of the method: (§1)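 Readout: isotopic light/heavy MS1 peak-area ratio (R, DMSO heavy over compound light), median across peptides sharing a modified lysine. Lysate received fragment (activated esters 50 μM, guanidinylating agents 100 μM final) or DMSO, then 0.1 mM STP-alkyne probe for 1 h at ambient temperature.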

[2] = biological target: T2, G6PD Glucose-6-phosphate 1-dehydrogenase (Homo sapiens, UniProt P11413)
T2 construct: isoTOP-ABPP experiments performed in cell lysates (in vitro); endogenous in cells; host or cells: MDA-MB-231 soluble lysate
Summary of the method: as §1

[3] = biological target: T3, XRCC6 X-ray repair cross-complementing protein 6 (Homo sapiens, UniProt P12956)
T3 construct: isoTOP-ABPP experiments performed in cell lysates (in vitro); endogenous in cells; host or cells: soluble proteome of human cancer cell lines (MDA-MB-231; Ramos and Jurkat also prepared)
Summary of the method: as §1

[4] = biological target: T4, CUL2 Cullin-2 (Homo sapiens, UniProt Q13617)
T4 construct: isoTOP-ABPP experiments performed in cell lysates (in vitro); endogenous in cells; host or cells: soluble proteome of human cancer cell lines (MDA-MB-231, Ramos, Jurkat)
Summary of the method: as §1

[5] = biological target: T5, NAA25 N-alpha-acetyltransferase 25, NatB auxiliary subunit (Homo sapiens, UniProt Q14CX7)
T5 construct: isoTOP-ABPP experiments performed in cell lysates (in vitro); endogenous in cells; host or cells: soluble proteome of human cancer cell lines (MDA-MB-231; Ramos and Jurkat also prepared)
Summary of the method: as §1

[6] = biological target: T6, OLA1 Obg-like ATPase 1 (Homo sapiens, UniProt Q9NTK5)
T6 construct: endogenous in cells; host or cells: MDA-MB-231 (soluble fraction of lysate)
Summary of the method: as §1

[7] = biological target: T7, WARS Tryptophan--tRNA ligase, cytoplasmic (Homo sapiens, UniProt P23381)
T7 construct: isoTOP-ABPP experiments performed in cell lysates (in vitro); endogenous in cells; host or cells: soluble proteome of human cancer cell lines (MDA-MB-231; Ramos and Jurkat also prepared)
T7 sequence (P23381 1-471): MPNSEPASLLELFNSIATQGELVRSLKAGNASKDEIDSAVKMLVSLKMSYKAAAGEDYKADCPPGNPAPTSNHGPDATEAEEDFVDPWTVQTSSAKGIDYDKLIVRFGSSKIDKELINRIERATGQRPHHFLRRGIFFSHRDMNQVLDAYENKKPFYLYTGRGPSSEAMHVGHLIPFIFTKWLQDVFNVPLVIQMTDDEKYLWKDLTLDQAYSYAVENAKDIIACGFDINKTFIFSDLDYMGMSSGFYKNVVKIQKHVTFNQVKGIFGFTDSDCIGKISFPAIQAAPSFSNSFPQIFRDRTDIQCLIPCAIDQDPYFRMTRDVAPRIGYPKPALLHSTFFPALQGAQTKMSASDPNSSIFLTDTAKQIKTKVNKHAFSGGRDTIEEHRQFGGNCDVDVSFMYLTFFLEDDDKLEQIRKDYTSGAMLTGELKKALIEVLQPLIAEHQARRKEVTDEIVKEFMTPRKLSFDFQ
Summary of the method: as §1

T2 sequence (P11413 whole entry): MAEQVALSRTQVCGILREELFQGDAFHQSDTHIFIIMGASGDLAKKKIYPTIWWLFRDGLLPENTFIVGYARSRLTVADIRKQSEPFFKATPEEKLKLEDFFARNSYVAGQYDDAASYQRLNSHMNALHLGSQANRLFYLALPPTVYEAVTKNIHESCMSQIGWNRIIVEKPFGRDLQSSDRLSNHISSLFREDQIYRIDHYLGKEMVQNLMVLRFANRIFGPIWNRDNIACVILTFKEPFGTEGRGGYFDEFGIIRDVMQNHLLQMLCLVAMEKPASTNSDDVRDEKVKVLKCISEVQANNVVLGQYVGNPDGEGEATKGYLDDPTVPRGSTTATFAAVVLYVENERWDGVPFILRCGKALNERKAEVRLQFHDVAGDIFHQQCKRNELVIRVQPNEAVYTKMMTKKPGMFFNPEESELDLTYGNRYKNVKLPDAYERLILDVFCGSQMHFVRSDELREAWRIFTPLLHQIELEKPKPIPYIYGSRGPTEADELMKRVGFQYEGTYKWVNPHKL
T4 sequence (Q13617 whole entry): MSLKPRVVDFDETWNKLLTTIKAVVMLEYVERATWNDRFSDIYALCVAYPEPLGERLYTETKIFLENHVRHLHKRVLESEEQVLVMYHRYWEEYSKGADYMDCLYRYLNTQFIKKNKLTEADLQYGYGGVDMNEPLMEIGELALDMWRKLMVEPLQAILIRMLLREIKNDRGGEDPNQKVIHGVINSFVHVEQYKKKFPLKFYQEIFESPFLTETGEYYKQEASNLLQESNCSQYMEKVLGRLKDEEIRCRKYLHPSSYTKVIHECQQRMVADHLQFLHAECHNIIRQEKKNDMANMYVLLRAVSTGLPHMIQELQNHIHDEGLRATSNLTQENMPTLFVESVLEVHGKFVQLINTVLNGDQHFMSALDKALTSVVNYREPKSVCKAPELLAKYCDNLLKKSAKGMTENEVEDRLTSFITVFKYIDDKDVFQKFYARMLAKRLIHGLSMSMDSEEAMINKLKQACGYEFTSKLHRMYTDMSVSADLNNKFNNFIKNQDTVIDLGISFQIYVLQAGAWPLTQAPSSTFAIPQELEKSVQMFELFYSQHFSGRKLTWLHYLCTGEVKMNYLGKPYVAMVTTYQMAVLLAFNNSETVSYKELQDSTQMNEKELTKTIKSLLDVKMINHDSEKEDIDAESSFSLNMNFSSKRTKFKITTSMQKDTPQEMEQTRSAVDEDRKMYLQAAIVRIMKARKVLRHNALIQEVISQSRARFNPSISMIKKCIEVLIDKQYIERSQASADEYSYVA
T5 sequence (Q14CX7 whole entry): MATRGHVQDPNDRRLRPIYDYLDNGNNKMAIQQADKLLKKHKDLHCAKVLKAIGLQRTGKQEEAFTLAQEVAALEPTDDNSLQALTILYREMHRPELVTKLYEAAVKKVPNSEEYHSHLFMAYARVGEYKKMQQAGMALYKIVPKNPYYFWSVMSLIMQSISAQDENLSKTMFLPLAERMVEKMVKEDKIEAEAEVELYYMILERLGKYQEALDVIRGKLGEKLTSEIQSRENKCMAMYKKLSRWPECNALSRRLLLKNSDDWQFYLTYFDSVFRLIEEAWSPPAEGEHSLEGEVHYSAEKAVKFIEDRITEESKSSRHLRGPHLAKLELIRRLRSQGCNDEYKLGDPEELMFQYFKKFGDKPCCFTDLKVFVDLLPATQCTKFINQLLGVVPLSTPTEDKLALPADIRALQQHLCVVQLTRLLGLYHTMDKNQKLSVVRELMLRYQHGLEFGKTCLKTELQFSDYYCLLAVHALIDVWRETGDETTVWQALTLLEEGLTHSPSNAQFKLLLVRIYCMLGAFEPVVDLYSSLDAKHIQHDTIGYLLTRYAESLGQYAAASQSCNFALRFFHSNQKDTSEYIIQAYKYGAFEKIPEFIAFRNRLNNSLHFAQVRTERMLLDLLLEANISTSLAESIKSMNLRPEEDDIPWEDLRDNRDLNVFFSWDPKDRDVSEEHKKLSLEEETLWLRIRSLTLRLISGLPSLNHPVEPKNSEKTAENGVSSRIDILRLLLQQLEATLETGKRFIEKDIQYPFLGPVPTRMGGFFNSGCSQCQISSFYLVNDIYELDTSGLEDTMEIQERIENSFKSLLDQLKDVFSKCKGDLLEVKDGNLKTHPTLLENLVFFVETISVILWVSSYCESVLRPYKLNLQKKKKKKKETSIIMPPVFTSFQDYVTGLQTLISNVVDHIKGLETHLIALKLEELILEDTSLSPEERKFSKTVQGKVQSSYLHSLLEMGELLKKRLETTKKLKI
T3 sequence (P12956 2-609 limits assumed): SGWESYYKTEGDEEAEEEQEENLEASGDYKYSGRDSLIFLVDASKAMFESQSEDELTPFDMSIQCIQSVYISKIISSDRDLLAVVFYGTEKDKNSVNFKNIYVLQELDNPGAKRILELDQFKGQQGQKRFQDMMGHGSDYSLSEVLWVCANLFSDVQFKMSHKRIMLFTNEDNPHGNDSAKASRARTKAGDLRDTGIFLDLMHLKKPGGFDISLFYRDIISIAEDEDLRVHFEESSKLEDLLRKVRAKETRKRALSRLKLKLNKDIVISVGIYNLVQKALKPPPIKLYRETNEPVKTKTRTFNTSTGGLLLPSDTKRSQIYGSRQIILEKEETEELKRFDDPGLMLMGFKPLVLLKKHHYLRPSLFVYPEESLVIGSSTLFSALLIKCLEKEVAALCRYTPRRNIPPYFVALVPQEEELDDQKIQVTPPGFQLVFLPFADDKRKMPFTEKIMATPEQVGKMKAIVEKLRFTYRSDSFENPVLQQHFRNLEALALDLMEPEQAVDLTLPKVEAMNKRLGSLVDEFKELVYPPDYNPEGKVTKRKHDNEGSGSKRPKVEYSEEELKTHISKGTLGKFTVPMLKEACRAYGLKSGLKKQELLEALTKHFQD
T3 sequence (P13010 2-732 partner limits assumed): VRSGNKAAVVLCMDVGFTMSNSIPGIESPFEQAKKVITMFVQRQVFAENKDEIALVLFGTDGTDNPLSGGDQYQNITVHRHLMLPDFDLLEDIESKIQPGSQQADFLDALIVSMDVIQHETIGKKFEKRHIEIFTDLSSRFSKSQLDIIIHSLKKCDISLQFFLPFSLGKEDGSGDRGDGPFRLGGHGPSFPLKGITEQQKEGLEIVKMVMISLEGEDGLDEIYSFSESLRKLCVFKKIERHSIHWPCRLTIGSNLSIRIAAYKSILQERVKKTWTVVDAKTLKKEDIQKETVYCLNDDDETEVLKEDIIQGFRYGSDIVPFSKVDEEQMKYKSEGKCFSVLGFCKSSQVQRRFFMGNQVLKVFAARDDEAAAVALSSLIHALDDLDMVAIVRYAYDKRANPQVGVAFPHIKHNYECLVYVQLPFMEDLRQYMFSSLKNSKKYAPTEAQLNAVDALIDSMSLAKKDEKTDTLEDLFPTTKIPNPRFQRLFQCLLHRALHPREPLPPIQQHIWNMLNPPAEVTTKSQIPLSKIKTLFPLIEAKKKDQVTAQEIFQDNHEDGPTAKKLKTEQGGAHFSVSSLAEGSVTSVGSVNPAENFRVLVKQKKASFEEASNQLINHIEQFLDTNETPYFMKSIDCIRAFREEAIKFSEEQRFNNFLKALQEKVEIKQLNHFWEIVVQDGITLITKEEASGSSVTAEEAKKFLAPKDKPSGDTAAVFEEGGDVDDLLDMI

O=C(CCc1ccc2c(c1)OCO2)Oc1ccc([N+](=O)[O-])cc1[N+](=O)[O-] [fragment 45, 2,4-Dinitrophenyl 3-(benzo[d][1,3]dioxol-5-yl)propanoate]
isoTOP-ABPP ratio, lysine Q7L0Y3_K325 ([1]; 50 uM_231_sol_in vitro): 1.0 | isoTOP-ABPP ratio, lysine P11413_K171 ([2]; 50 uM_231_sol_in vitro): 1.1 | isoTOP-ABPP ratio, lysine P12956_K351 ([3]; 50 uM_231_sol_in vitro): 1.9 | isoTOP-ABPP ratio, lysine Q13617_K489 ([4]; 50 uM_231_sol_in vitro): 1.2 | isoTOP-ABPP ratio, lysine Q14CX7_K575 ([5]; 50 uM_231_sol_in vitro): 1.2 | isoTOP-ABPP ratio, lysine Q9NTK5_K248 ([6]; 50 uM_231_sol_in vitro): 1.0 | isoTOP-ABPP ratio, lysine P23381_K256 ([7]; 50 uM_231_sol_in vitro): 1.1

COC(=O)NC(=NC(=O)OCC1c2ccccc2-c2ccccc21)n1cccn1 [fragment 49, N-Methoxycarbonyl-N′-9-fluorenylmethoxycarbonyl-pyrazole-1-carboxamidine]
isoTOP-ABPP ratio, lysine Q7L0Y3_K325 ([1]; 100 uM_231_sol_in vitro): 1.2 | isoTOP-ABPP ratio, lysine P11413_K171 ([2]; 100 uM_231_sol_in vitro): 1.2 | isoTOP-ABPP ratio, lysine P12956_K351 ([3]; 100 uM_231_sol_in vitro): 20.0 | isoTOP-ABPP ratio, lysine Q13617_K489 ([4]; 100 uM_231_sol_in vitro): 1.1 | isoTOP-ABPP ratio, lysine Q14CX7_K575 ([5]; 100 uM_231_sol_in vitro): 1.1 | isoTOP-ABPP ratio, lysine Q9NTK5_K248 ([6]; 100 uM_231_sol_in vitro): 7.0 | isoTOP-ABPP ratio, lysine P23381_K256 ([7]; 100 uM_231_sol_in vitro): 1.0

From patent US20210255193A1, “LYSINE REACTIVE PROBES AND USES THEREOF” (The Scripps Research Institute, priority 2017, published 2021)
